Assay results from ChEMBL document CHEMBL5465560, “Selectivity Literature for EUbOPEN Chemogenomic Library” (2024).

Columns and labels:
[1] = biological target: Mitogen-activated protein kinase kinase kinase 11 (Homo sapiens) (UniProt Q16584); experiment: Selectivity interaction (KinomeScan (DiscoverX)) EUB0000229b MAP3K11; details: at 10 µM
[2] = biological target: Insulin-like growth factor 1 receptor (Homo sapiens, UniProt P08069); experiment: Selectivity interaction (Kinase panel (Z-LYTE Assay)) EUB0001632a IGF1R; details: at 10 µM
[3] = biological target: Rho-associated protein kinase 2 (Homo sapiens, UniProt O75116); experiment: Selectivity interaction (KinomeScan (DiscoverX)) EUB0001049a ROCK2; details: at 1 µM
[4] = biological target: Protein kinase C gamma type (Homo sapiens) (UniProt P05129); experiment: Selectivity interaction (Millipore kinase profiler) EUB0000124b PRKCG; details: at 10 µM
[5] = biological target: High affinity nerve growth factor receptor (Homo sapiens, UniProt P04629); experiment: Selectivity interaction (KinomeScan (DiscoverX)) EUB0001619a NTRK1; details: at 1 µM
[6] = biological target: Phosphatidylinositol 4-phosphate 5-kinase type-1 alpha (Homo sapiens) (UniProt Q99755); experiment: Selectivity interaction (KinomeScan (DiscoverX)) EUB0001619a PIP5K1A; details: at 1 µM
[7] = biological target: T1, Mitogen-activated protein kinase kinase kinase 7 (Homo sapiens) (UniProt O43318); experiment: Selectivity interaction (Kinase panel (literature)) EUB0001199aCl MAP3K7; details: at 1 µM
T1 sequence (whole entry): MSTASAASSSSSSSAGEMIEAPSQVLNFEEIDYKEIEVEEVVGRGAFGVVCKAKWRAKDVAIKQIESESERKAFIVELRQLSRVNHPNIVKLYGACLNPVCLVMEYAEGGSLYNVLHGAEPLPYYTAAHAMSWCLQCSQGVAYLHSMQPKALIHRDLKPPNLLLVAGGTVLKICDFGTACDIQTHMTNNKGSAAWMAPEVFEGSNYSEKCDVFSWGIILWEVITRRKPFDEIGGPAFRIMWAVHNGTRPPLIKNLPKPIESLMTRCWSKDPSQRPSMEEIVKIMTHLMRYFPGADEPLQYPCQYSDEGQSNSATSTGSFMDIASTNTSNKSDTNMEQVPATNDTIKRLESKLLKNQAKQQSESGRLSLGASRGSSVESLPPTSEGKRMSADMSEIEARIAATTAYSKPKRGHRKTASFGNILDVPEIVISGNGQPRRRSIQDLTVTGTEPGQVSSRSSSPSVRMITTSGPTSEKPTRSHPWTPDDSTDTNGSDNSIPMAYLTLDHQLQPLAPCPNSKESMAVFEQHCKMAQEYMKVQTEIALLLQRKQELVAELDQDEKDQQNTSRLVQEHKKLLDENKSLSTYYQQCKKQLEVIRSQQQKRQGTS

[8] = biological target: T2, Ephrin type-A receptor 8 (Homo sapiens) (UniProt P29322); experiment: Selectivity interaction (KinomeScan (DiscoverX)) EUB0000607a EPHA8; details: at 10 µM
T2 sequence (whole entry): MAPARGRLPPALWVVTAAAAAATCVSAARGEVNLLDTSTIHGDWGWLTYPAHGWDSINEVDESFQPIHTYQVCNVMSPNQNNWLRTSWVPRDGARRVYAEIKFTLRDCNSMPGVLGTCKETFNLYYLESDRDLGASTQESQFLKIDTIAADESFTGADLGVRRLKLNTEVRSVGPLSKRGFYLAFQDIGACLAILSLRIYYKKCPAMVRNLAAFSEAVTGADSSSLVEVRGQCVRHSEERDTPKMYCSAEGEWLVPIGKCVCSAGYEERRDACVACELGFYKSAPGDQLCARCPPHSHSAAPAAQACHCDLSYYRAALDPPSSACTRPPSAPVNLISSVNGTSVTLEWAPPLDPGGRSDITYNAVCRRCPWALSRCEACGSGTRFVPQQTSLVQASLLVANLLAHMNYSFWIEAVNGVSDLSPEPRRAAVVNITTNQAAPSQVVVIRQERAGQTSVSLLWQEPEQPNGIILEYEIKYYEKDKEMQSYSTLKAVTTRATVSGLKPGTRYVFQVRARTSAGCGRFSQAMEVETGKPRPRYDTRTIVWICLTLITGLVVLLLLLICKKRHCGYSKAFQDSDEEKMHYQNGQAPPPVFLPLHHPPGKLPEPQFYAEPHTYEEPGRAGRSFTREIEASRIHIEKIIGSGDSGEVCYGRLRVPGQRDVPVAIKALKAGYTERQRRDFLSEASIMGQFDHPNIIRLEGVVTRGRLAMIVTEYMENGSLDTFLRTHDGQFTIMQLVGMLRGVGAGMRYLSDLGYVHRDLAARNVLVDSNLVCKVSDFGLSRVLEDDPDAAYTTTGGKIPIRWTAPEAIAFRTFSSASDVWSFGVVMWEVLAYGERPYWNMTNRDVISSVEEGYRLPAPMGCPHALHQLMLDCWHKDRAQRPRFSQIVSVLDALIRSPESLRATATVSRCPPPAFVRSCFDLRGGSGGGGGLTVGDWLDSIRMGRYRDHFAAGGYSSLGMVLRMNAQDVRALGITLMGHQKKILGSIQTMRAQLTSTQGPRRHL

[9] = biological target: Epithelial discoidin domain-containing receptor 1 (Homo sapiens) (UniProt Q08345); experiment: Selectivity interaction (KinomeScan (DiscoverX)) EUB0000655a DDR1; details: at 10 µM
[10] = biological target: T3, Dual specificity mitogen-activated protein kinase kinase 4 (Homo sapiens) (UniProt P45985); experiment: Selectivity interaction (KinomeScan (DiscoverX)) EUB0000655a MAP2K4; details: at 10 µM
T3 sequence (whole entry): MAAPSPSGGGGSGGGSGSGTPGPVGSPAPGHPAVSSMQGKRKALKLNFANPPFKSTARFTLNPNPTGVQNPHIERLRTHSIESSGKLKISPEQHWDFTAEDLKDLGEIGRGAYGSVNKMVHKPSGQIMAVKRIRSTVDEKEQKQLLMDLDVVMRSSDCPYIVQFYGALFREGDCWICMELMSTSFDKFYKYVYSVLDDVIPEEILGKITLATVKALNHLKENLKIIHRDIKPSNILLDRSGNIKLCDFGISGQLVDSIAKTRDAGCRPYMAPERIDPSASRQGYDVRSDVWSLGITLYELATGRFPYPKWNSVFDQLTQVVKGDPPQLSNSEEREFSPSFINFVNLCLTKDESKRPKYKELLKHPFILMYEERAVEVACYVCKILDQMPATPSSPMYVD

Chain of Epithelial discoidin domain-containing receptor 1 (Homo sapiens) (Q08345 whole entry, the tested form may be a part): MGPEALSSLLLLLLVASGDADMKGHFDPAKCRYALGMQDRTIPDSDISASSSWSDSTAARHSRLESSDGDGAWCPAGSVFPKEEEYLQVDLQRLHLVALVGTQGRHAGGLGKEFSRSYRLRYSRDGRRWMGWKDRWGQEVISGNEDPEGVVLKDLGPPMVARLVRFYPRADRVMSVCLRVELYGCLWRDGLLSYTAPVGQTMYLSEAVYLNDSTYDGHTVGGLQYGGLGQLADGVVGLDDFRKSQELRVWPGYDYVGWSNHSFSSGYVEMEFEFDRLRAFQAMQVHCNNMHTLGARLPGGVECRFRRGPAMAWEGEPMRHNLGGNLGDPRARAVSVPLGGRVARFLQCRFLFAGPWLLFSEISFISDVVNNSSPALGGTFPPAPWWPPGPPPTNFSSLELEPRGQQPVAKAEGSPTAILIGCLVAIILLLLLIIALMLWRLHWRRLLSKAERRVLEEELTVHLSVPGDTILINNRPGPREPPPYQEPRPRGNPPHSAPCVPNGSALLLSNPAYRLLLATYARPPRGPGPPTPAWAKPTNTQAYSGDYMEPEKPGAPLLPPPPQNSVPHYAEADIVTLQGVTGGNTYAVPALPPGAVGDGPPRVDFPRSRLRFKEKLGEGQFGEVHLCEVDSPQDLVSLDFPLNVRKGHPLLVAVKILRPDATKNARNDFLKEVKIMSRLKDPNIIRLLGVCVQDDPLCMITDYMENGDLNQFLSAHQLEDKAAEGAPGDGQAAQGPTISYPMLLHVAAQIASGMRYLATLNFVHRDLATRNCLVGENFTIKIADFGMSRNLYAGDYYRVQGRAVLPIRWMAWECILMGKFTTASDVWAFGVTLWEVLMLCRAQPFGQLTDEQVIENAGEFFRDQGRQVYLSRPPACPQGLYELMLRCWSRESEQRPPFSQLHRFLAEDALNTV
Chain of Insulin-like growth factor 1 receptor (P08069 31-736 limits assumed): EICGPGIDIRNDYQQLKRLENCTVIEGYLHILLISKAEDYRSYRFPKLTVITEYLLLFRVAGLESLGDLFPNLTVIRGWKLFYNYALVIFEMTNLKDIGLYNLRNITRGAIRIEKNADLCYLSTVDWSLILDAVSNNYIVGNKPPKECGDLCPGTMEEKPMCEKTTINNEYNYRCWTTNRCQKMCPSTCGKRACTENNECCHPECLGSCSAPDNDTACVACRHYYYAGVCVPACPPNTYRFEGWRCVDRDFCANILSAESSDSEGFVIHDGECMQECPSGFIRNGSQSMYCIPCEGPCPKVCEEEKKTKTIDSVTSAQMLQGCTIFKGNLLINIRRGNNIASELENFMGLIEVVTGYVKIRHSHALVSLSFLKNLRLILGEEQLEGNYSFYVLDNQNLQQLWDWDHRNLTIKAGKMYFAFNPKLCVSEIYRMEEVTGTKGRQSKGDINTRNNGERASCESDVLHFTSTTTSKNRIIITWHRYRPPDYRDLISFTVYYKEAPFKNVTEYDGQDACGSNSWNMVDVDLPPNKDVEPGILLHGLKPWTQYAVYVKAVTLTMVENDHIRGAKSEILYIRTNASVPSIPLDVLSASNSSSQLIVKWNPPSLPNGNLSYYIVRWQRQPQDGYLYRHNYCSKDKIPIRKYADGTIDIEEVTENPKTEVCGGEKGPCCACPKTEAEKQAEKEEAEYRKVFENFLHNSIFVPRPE
Chain of Insulin-like growth factor 1 receptor (P08069 741-1367 limits assumed): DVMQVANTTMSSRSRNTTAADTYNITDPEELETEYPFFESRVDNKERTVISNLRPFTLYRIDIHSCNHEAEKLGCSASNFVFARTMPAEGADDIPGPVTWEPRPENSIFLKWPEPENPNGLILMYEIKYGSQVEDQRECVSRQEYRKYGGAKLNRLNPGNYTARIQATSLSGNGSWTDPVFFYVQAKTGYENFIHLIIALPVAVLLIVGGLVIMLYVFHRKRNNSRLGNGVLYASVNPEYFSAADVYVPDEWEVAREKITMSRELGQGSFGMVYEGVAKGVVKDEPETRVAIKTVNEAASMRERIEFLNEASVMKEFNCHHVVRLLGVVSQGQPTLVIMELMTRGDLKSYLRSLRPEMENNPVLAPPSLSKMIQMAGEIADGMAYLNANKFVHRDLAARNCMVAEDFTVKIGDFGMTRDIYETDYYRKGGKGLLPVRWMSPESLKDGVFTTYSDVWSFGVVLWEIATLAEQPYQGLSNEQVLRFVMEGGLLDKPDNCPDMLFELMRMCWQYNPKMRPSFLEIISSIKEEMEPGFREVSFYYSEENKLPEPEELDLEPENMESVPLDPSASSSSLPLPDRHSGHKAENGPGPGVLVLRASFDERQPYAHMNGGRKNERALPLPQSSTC
Chain of Phosphatidylinositol 4-phosphate 5-kinase type-1 alpha (Homo sapiens) (Q99755 whole entry): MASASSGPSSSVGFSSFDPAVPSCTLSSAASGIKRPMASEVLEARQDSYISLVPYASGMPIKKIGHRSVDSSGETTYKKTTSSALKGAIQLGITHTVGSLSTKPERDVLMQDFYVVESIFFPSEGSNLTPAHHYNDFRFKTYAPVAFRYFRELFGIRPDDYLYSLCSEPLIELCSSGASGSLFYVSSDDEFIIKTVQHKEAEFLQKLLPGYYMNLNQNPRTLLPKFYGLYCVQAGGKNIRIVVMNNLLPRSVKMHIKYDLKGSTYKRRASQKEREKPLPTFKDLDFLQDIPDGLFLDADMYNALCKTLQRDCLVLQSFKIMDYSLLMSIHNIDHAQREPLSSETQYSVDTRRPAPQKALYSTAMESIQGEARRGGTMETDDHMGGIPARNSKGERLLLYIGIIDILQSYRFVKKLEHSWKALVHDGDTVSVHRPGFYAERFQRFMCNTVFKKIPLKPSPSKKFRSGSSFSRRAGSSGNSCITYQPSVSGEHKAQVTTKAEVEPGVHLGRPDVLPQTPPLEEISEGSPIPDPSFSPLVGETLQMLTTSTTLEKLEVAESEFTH
Chain of High affinity nerve growth factor receptor (P04629 33-796 limits assumed): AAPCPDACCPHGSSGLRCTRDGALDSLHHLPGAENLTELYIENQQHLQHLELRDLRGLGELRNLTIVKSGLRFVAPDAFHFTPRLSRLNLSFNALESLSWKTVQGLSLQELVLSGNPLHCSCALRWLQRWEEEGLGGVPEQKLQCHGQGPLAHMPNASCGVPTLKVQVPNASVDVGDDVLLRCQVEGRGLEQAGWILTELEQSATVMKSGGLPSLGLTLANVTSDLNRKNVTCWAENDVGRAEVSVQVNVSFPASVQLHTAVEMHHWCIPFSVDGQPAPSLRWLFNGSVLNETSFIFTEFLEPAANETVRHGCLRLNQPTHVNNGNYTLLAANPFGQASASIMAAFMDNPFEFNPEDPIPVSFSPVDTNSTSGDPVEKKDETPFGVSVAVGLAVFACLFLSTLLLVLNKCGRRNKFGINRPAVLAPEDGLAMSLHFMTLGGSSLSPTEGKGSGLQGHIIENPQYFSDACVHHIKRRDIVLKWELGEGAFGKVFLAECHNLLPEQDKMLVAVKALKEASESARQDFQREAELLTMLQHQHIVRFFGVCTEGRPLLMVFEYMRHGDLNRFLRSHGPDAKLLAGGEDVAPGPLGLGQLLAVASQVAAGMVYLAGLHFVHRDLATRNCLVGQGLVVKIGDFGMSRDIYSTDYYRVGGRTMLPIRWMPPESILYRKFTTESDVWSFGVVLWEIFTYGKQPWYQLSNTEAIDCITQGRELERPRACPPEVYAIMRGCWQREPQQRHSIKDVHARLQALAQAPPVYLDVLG

With `COc1cc(N(C)c2ccnc3ccc(C(F)(F)F)cc23)cc(OC)c1OC` the % binding [1] was 92%.

`Cn1cc(-n2cnc3c(NCc4nc5cc(Cl)c(Cl)cc5[nH]4)nc(N4CCOCC4)nc32)cn1` showed a % of control [2] of 3.73%.

Molecule `COc1cc(Nc2nc(C)cc(-c3cnn4nc(OC)ccc34)n2)cc(C(F)(F)F)c1` has a % of control [3] of 100%.

`CC(=O)Nc1cccc(-n2c(=O)n(C3CC3)c(=O)c3c(Nc4ccc(I)cc4F)n(C)c(=O)c(C)c32)c1` gave a % of control [4] of 107%.

Molecule `N#Cc1cccc(-c2c[nH]c3ncnc(N4CCOCC4)c23)c1` has a % of control [5] of 88% and a % of control [6] of 20%.

Molecule `CN1Cc2nccc(-c3cn(C)nc3-c3ccc(F)cc3)c2C1=O` has a % of inhibition [7] of 3%.

In the case of `CNC(=O)Nc1ccc(-c2nc(N3CC4CCC(C3)O4)c3cnn(C4CCC5(CC4)OCCO5)c3n2)cc1`, the % of control [8] is reported as 81%.

Molecule `CN(C)CCOc1ccc(-c2nc(-c3ccncc3)c(-c3ccc4c(c3)CC/C4=N\O)[nH]2)cc1` has a % of control [9] of 43% and a % of control [10] of 100%.
